Values quoted from earlier work as cited in patent US8529935B2, “Antibacterial hydrogel and use thereof in orthopedics” (Mero S.R.L., priority 2009, dated 2013).

Details: known from the literature

SMILES	minimum inhibiting concentration (MIC)
NC[C@H]1O[C@H](O[C@H]2[C@H](O)[C@@H](O[C@H]3O[C@H](CO)[C@@H](O)[C@H](N)[C@H]3O)[C@H](N)C[C@@H]2N)[C@H](N)C[C@@H]1O [tobramycin]	about 1 mg/l
CN[C@H](CC(C)C)C(=O)N[C@H]1C(=O)N[C@@H](CC(N)=O)C(=O)N[C@H]2C(=O)N[C@H]3C(=O)N[C@H](C(=O)N[C@H](C(=O)O)c4cc(O)cc(O)c4-c4cc3ccc4O)[C@H](O)c3ccc(c(Cl)c3)Oc3cc2cc(c3O[C@@H]2O[C@H](CO)[C@@H](O)[C@H](O)[C@H]2O[C@H]2C[C@](C)(N)[C@H](O)[C@H](C)O2)Oc2ccc(cc2Cl)[C@H]1O [vancomycin]	1.56 to 3.12 µg/mL
